{
  "source": "patent US20110039763A1",
  "about": "“TARGETED ANTIMICROBIAL MOIETIES” (C3 JIAN, INC., priority 2009, published 2011)",
  "note": "“Also recorded” adds a separate entry of the source.",
  "data": [
    {"tested_on": "microorganisms", "experiment": "Targeting peptide binding to target microorganisms (Tables 3, 10, 12)", "details": "peptide binding in aqueous buffers that varied with peptide solubility; preferably 1x PBS", "description": "In certain embodiments, the targeting moiety comprises one or more targeting peptides that bind particular bacteria, fungi, and/or yeasts, and/or algae, and/or viruses and/or that bind particular groups of bacteria, and/or groups of fungi, and/or groups of yeasts, and/or groups of algae.\nIn certain embodiments the targeting peptides include peptides comprising or consisting of one or more of the amino acid sequences shown in Table 3 (SEQ ID NOs:13-1566). In various embodiments the peptides include peptides comprising or consisting of the retro, inverso, retro-inverso, and/or beta form of one or more of the amino acid sequences shown in Table 3. Also contemplated are circular permutations of these sequences as well as peptides comprising or consisting of the retro, inverso, retro-inverso, and/or beta form of such circular permutations.\nIn certain embodiments the targeting peptide can comprise one or more domains capable of binding, specifically binding, or preferentially binding to a microorganism, e.g., a target microbial organism (see, e.g., Table 3). In certain embodiment, the targeting peptide be identified via screening peptide libraries. For example, a phage display peptide library can be screened against a target microbial organism or a desired antigen or epitope thereof. Any peptide identified through such screening can be used as a targeting peptide for the target microbial organism.", "values": [
      {"substance": "1T-45 (WTKPSFTDLRLGFEVTLYFANR; Peptide with targeting and/or antimicrobial activity)", "Target(s) (microorganism bound by the targeting peptide)": "S. aureus; also recorded: S. epidermidis; also recorded: C. striatum; also recorded: P. aeruginosa"},
      {"substance": "1T-46 (FSFKQRVMFRKEVERLR; Peptide with targeting and/or antimicrobial activity)", "Target(s) (microorganism bound by the targeting peptide)": "S. aureus; also recorded: S. epidermidis; also recorded: C. jeikeium; also recorded: C. xerosis; also recorded: C. striatum; also recorded: P. aeruginosa"},
      {"substance": "1T-47 (VIKISVPGQVQMLIP; Peptide with targeting and/or antimicrobial activity)", "Target(s) (microorganism bound by the targeting peptide)": "S. mutans; also recorded: S. epidermidis; also recorded: P. aeruginosa"},
      {"substance": "1T-48 (KLQVHHGRATHTLLLQPPLCAPGTIR; Peptide with targeting and/or antimicrobial activity)", "Target(s) (microorganism bound by the targeting peptide)": "S. aureus; also recorded: S. epidermidis; also recorded: C. jeikeium; also recorded: C. xerosis; also recorded: C. striatum; also recorded: P. aeruginosa"},
      {"substance": "1T-49 (SLVRIHDQQPWVTRGAFIDAARTCS; Peptide with targeting and/or antimicrobial activity)", "Target(s) (microorganism bound by the targeting peptide)": "S. aureus; also recorded: S. epidermidis; also recorded: C. jeikeium; also recorded: P. aeruginosa"},
      {"substance": "1T-50 (HSDEPIPNILFKSDSVH; Peptide with targeting and/or antimicrobial activity)", "Target(s) (microorganism bound by the targeting peptide)": "P. aeruginosa"},
      {"substance": "1T-51 (GKPKRMPAEFIDGYGQALLAGA; Peptide with targeting and/or antimicrobial activity)", "Target(s) (microorganism bound by the targeting peptide)": "S. aureus; also recorded: P. aeruginosa"},
      {"substance": "1T-52 (DEYPAKLPLSDKGATEPRRH; Peptide with targeting and/or antimicrobial activity)", "Target(s) (microorganism bound by the targeting peptide)": "S. aureus; also recorded: C. xerosis; also recorded: P. aeruginosa"},
      {"substance": "1T-53 (SDILAEMFEKGELQTLVKDAAAKANA; Peptide with targeting and/or antimicrobial activity)", "Target(s) (microorganism bound by the targeting peptide)": "P. aeruginosa"},
      {"substance": "1T-54 (RWVSCNPSWRIQ; Peptide with targeting and/or antimicrobial activity)", "Target(s) (microorganism bound by the targeting peptide)": "S. epidermidis; also recorded: C. xerosis; also recorded: C. striatum; also recorded: P. aeruginosa"},
      {"substance": "1T-55 (NHKTLKEWKAKWGPEAVESWATLLG; Peptide with targeting and/or antimicrobial activity)", "Target(s) (microorganism bound by the targeting peptide)": "C. xerosis; also recorded: P. aeruginosa"},
      {"substance": "1T-56 (LALIGAGIWMIRKG; Peptide with targeting and/or antimicrobial activity)", "Target(s) (microorganism bound by the targeting peptide)": "C. xerosis; also recorded: P. aeruginosa"},
      {"substance": "1T-57 (RLEYRRLETQVEENPESGRRPMRG; Peptide with targeting and/or antimicrobial activity)", "Target(s) (microorganism bound by the targeting peptide)": "P. aeruginosa"},
      {"substance": "1T-58 (CDDLHALERAGKLDALLSA; Peptide with targeting and/or antimicrobial activity)", "Target(s) (microorganism bound by the targeting peptide)": "P. aeruginosa"},
      {"substance": "1T-59 (AVGNNLGKDNDSGHRGKKHRKHKHR; Peptide with targeting and/or antimicrobial activity)", "Target(s) (microorganism bound by the targeting peptide)": "S. aureus; also recorded: S. epidermidis; also recorded: P. aeruginosa"},
      {"substance": "1T-60 (YLTSLGLDAAEQAQGLLTILKG; Peptide with targeting and/or antimicrobial activity)", "Target(s) (microorganism bound by the targeting peptide)": "S. aureus; also recorded: S. epidermidis; also recorded: C. jeikeium; also recorded: C. striatum; also recorded: P. aeruginosa"},
      {"substance": "1T-61 (HATLLPAVREAISRQLLPALVPRG; Peptide with targeting and/or antimicrobial activity)", "Target(s) (microorganism bound by the targeting peptide)": "P. aeruginosa"},
      {"substance": "1T-62 (GCKGCAQRDPCAEPEPYFRLR; Peptide with targeting and/or antimicrobial activity)", "Target(s) (microorganism bound by the targeting peptide)": "S. epidermidis; also recorded: P. aeruginosa"},
      {"substance": "1T-63 (EPLILKELVRNLFLFCYARALR; Peptide with targeting and/or antimicrobial activity)", "Target(s) (microorganism bound by the targeting peptide)": "S. aureus; also recorded: S. epidermidis; also recorded: C. jeikeium; also recorded: C. xerosis; also recorded: C. striatum; also recorded: P. aeruginosa"},
      {"substance": "1T-64 (QTVHHIHMHVLGQRQMHWPPG; Peptide with targeting and/or antimicrobial activity)", "Target(s) (microorganism bound by the targeting peptide)": "S. aureus; also recorded: S. epidermidis; also recorded: C. jeikeium; also recorded: C. xerosis; also recorded: C. striatum; also recorded: P. aeruginosa"},
      {"substance": "1T-65 (HARAAVGVAELPRGAAVEVELIAAVRP; Peptide with targeting and/or antimicrobial activity)", "Target(s) (microorganism bound by the targeting peptide)": "S. mutans; also recorded: S. aureus; also recorded: S. epidermidis; also recorded: C. jeikeium; also recorded: C. xerosis; also recorded: C. striatum; also recorded: P. aeruginosa"},
      {"substance": "1T-66 (DTDCLSRAYAQRIDELDKQYAGIDKPL; Peptide with targeting and/or antimicrobial activity)", "Target(s) (microorganism bound by the targeting peptide)": "S. mutans; also recorded: S. aureus; also recorded: S. epidermidis; also recorded: C. jeikeium; also recorded: C. xerosis; also recorded: C. striatum; also recorded: P. aeruginosa"},
      {"substance": "1T-67 (GQRQRLTCGRVSGCSEGPSREAAR; Peptide with targeting and/or antimicrobial activity)", "Target(s) (microorganism bound by the targeting peptide)": "S. aureus; also recorded: S. epidermidis; also recorded: C. jeikeium; also recorded: C. xerosis; also recorded: C. striatum; also recorded: P. aeruginosa"},
      {"substance": "1T-68 (GGTKEIVYQRG; Peptide with targeting and/or antimicrobial activity)", "Target(s) (microorganism bound by the targeting peptide)": "S. mutans; also recorded: S. aureus; also recorded: C. jeikeium; also recorded: C. xerosis; also recorded: C. striatum; also recorded: P. aeruginosa"},
      {"substance": "1T-69 (ILSQEADRKKLF; Peptide with targeting and/or antimicrobial activity)", "Target(s) (microorganism bound by the targeting peptide)": "S. mutans; also recorded: P. aeruginosa"},
      {"substance": "1T-70 (NRQAQGERAHGEQQG; Peptide with targeting and/or antimicrobial activity)", "Target(s) (microorganism bound by the targeting peptide)": "S. aureus; also recorded: C. jeikeium; also recorded: P. aeruginosa"},
      {"substance": "1T-71 (KIDTNQWPPNKEG; Peptide with targeting and/or antimicrobial activity)", "Target(s) (microorganism bound by the targeting peptide)": "P. aeruginosa"},
      {"substance": "1T-72 (EPTDGVACKER; Peptide with targeting and/or antimicrobial activity)", "Target(s) (microorganism bound by the targeting peptide)": "P. aeruginosa"},
      {"substance": "1T-73 (GWWEELLHETILSKFKITKALELPIQL; Peptide with targeting and/or antimicrobial activity)", "Target(s) (microorganism bound by the targeting peptide)": "S. pneumoniae"},
      {"substance": "1T-74 (DIDWGRKISCAAGVAYGAIDGCATTV; Peptide with targeting and/or antimicrobial activity)", "Target(s) (microorganism bound by the targeting peptide)": "S. pneumoniae"},
      {"substance": "1T-75 (GVARGLQLGIKTRTQWGAATGAA; Peptide with targeting and/or antimicrobial activity)", "Target(s) (microorganism bound by the targeting peptide)": "S. pneumoniae"},
      {"substance": "1T-76 (EMRLSKFFRDFILWRKK; Peptide with targeting and/or antimicrobial activity)", "Target(s) (microorganism bound by the targeting peptide)": "S. pneumoniae"},
      {"substance": "1T-77 (EMRISRIILDFLFLRKK; Peptide with targeting and/or antimicrobial activity)", "Target(s) (microorganism bound by the targeting peptide)": "S. pneumoniae"},
      {"substance": "1T-78 (FFKTIFVLILGALGVAAGLYIEKNYIDK; Peptide with targeting and/or antimicrobial activity)", "Target(s) (microorganism bound by the targeting peptide)": "S. pneumoniae"},
      {"substance": "1T-79 (FGTPWSITNFWKKNFNDRPDFDSDRRRY; Peptide with targeting and/or antimicrobial activity)", "Target(s) (microorganism bound by the targeting peptide)": "S. pneumoniae"},
      {"substance": "1T-80 (GGNLGPGFGVIIP; Peptide with targeting and/or antimicrobial activity)", "Target(s) (microorganism bound by the targeting peptide)": "S. pneumoniae"},
      {"substance": "1T-81 (AIATGLDIVDGKFDGYLWA; Peptide with targeting and/or antimicrobial activity)", "Target(s) (microorganism bound by the targeting peptide)": "S. pneumoniae"},
      {"substance": "1T-82 (FGVGVGIALFMAGYAIGKDLRKKFGKSC; Peptide with targeting and/or antimicrobial activity)", "Target(s) (microorganism bound by the targeting peptide)": "S. pneumoniae"},
      {"substance": "1T-83 (QKPRKNETFIGYIQRYDIDGNGYQSLPCPQN; Peptide with targeting and/or antimicrobial activity)", "Target(s) (microorganism bound by the targeting peptide)": "S. pneumoniae"},
      {"substance": "1T-84 (FRKKRYGLSILLWLNAFTNLVNSIHAFYMTLF; Peptide with targeting and/or antimicrobial activity)", "Target(s) (microorganism bound by the targeting peptide)": "S. pneumoniae"},
      {"substance": "1T-86 (HRKNPVLGVGRRHRAHNVA; Peptide with targeting and/or antimicrobial activity)", "Target(s) (microorganism bound by the targeting peptide)": "S. mitis; also recorded: S. oralis; also recorded: S. salivarious"},
      {"substance": "1T-87 (EAVGQDLVDAHHP; Peptide with targeting and/or antimicrobial activity)", "Target(s) (microorganism bound by the targeting peptide)": "S. mitis; also recorded: S. mutans; also recorded: S. oralis"},
      {"substance": "1T-89 (HEDDKRRGMSVEVLGFEVVQHEE; Peptide with targeting and/or antimicrobial activity)", "Target(s) (microorganism bound by the targeting peptide)": "S. mitis; also recorded: S. mutans"}
    ]}
  ]
}
